Converted amounts (≈) assume the structure as drawn. Read-outs that look alike come from different tables or passages of the source.

In one data set the test system is human fibroblast cells. The following applies: against human fibroblast cells; cited from earlier work.
The subject of a further data set is B. subtilis ATCC-6633. As to the kind of experiment: Antibacterial activity, MIC by double-microdilution. In kind it is cell-based. The following applies: Bacillus subtilis. The protocol:
(§1) Comparative antibacterial activities were determined in two representative strains of Gram-negative (E. coli R477-100) and Gram-positive (B. subtilis ATCC-6633) bacteria, by measuring the MIC values using the double-microdilution method according to the National Committee for Clinical Laboratory Standards (NCCLS) (NCCLS. National Committee for Clinical Laboratory Standards, Performance standards for antimicrobial susceptibility testing. Fifth information supplement: Approved Standard M100-S5; Villanova, Pa.: NCCLS, 1994.).
(§2) In all biological tests, all AGs were in their sulfate salt forms, and the concentrations refer to the free amine form of each AG. The eukaryotic and prokaryotic half-maximal-inhibition values (IC50^Euk and IC50^Pro) were quantified in coupled transcription/translation assays by using active luciferase detection as previously described. Minimal inhibitory concentration (MIC) values were determined by using the double-microdilution method.
For orientation: Dilution methods test growth across graded concentrations, often in twofold steps.

The subject of a further data set is E. coli R477-100. The data set is described as above. The following applies: Escherichia coli, R477100, read-out: Antibacterial Activity MIC E. Coli R 477/100. The data set is classed as cell-based. The protocol:
as §1, §2

The test system of data set [1] is stop codon mutations of Table 5. As to the kind of experiment: Dual-luciferase readthrough of a broad arsenal of stop codon mutations. The data set is classed as biochemical. To be noted: all tested mutations. The protocol:
In these assays, the readthrough of a broad arsenal of stop codon mutations in the presence of NB156 and NB157 was tested. Briefly, NB156 and NB157 were tested at escalating doses for their read-through properties towards the nonsense mutation using the wild-type (WT) sequence of each specific complementary DNA (cDNA) as a control, and plasmids bearing the stop codon mutations in a dual-luciferase assay. DNA fragments derived from different cDNAs were prepared using either the WT or nonsense mutation, in which the sequences from the mutant or wild-type codon were surrounded by four to six upstream and downstream flanking codons. The cDNA sequence was inserted into the polylinker of the p2luc plasmid for each sequence.

In data set [2] the test system is prokaryotic ribosome (E. coli S30 extract). As to the kind of experiment: Prokaryotic in vitro translation inhibition, coupled transcription/translation, E. coli S30 extract, pBESTluc. The following applies: from IC50^Pro and MIC values of Tables 4 and 6. In kind it is biochemical. The protocol:
(§3) Prokaryotic in vitro translation inhibition by the different aminoglycosides was quantified in coupled transcription/translation assays by using E. coli S30 extract for circular DNA with the pBESTluc plasmid (Promega), according to the manufacturer's protocol. Translation reactions (25 μL) that contained variable concentrations of the tested aminoglycoside were incubated at 37° C. for 60 minutes, cooled on ice for 5 minutes, and diluted with a dilution reagent (tris-phosphate buffer (25 mM, pH 7.8), DTT (2 mM), 1,2-diaminocyclohexanetetraacetate (2 mM), glycerol (10%), Triton X-100 (1%) and BSA (1 mg mL-1)) into 96-well plates. Eukaryotic in vitro translation inhibition was quantified by use of TNT® T7 Quick Coupled Transcription/Translation System with a luciferase T7 control DNA plasmid (Promega), according to the manufacturer protocol. Translation reactions (25 μL) containing variable concentrations of the tested aminoglycoside were incubated at 30° C. for 60 minutes, cooled on ice for 5 minutes, diluted with the dilution reagent and transferred into 96-well plates. In both prokaryotic and eukaryotic systems the luminescence was measured immediately after the addition of the Luciferase Assay Reagent (50 μL; Promega), and the light emission was recorded with a FLx800 Fluorescence Microplate Reader (Biotek). The half-maximal inhibition concentration (IC50) values were obtained from fitting concentration-response curves to the data of at least two independent experiments by using Grafit 5 software.
as §2

Data set [3] concerns eukaryotic cytoplasmic ribosome. As to the kind of experiment: Eukaryotic in vitro translation inhibition, TNT T7 Quick Coupled Transcription/Translation System, luciferase. In kind it is biochemical. The following applies: NB156 vs NB74, NB157 vs NB124. The protocol: as §3, with “Translation reactions (25 μL) containing variable concentrations of the tested aminoglycoside were incubated at 30° C. for 60 minutes, cooled on ice for 5 minutes, diluted with the dilution reagent and transferred into 96-well plates.” left out, “The half-maximal inhibition concentration (IC50) values were obtained from fitting concentration-response curves to the data of at least two independent experiments by using Grafit 5 software.” left out
In all biological tests, all AGs were in their sulfate salt forms, and the concentrations refer to the free amine form of each AG. […] Minimal inhibitory concentration (MIC) values were determined by using the double-microdilution method.

Data set [4] concerns nonsense constructs R3X and R245X (USH1), Q70X (HS), G542X (CF). As to the kind of experiment: Dual luciferase in vitro readthrough assay, p2Luc plasmids, TNT Reticulocyte Lysate. In kind it is biochemical. To be noted: all mutations tested: R3X, R245X, Q70X, G542X; FIGS. 11A-D. The text has this:
DNA fragments derived from PCDH15, CFTR, and IDUA cDNAs, including the tested nonsense mutation or the corresponding wild type (wt) codon, and four to six upstream and downstream flanking codons were created by annealing the following pairs of complementary oligonucleotides:
Fragments were inserted in frame into the polylinker of the p2Luc plasmid between either BamHI and SacI (p.R3X and p.R245X) or SalI and SacI (all the rest) restriction sites. For the in vitro readthrough assays, the obtained plasmids, with addition of the tested aminoglycosides were transcribed and translated using the TNT Reticulocyte Lysate Quick Coupled Transcription/Translation System. Luciferase activity was determined after 90 minutes of incubation at 30° C., using the Dual Luciferase Reporter Assay System (Promega™).
Activity was tested using a collection of dual-luciferase reporter plasmids, containing different sequence contests around premature stop codons derived from the PCDH15, CFTR, and IDUA genes that underline USH1, CF, and MPS I-H, respectively. The exemplified nonsense reporters were R3X and R245X for USH1, G542X for CF, and Q70X for MPS I-H.

Turning to `CN[C@@H]1[C@@H](O)[C@@H](O[C@@H]2[C@@H](O)[C@H](O[C@H]3O[C@H]([C@@H](C)O)[C@@H](O)[C@H](O)[C@H]3N)[C@@H](N)C[C@H]2N)OC[C@]1(C)O` [Compound G418, geneticin, reference compound], the LD50 in the data set with human fibroblast cells was 0.04 mg/mL. In addition, the MIC with B. subtilis ATCC-6633 (ATCC6633, read-out: Antibacterial Activity MIC B. Subtilis ATCC6633) is < 1.25 µM; in the data set on E. coli R477-100, 9 µM (≈ 4.47 µg/mL).
For `NC[C@H]1O[C@@H](O[C@@H]2[C@@H](O)[C@H](N)C[C@H](N)[C@H]2O[C@H]2O[C@H]([C@H](O)CO)[C@@H](O)[C@H](O)[C@H]2N)[C@@H](O)[C@H]1O` [NB156, (2R, 3S, 4R, 5R, 6S)-5-amino-6-(((1R, 2R, 3S, 4R, 6S)-4,6-diamino-2-(((2S, 3S, 4R, 5R)-5-(aminomethyl)-3,4-dihydroxytetrahydrofuran-2-yl)oxy)-3-hydroxycyclohexyl)oxy)-2-((R)-1,2-dihydroxyethyl)tetrahydro-2H-pyran-3,4-diol], the “stop-codon mutation readthrough activity compared with NB74” value in data set [1] is reported as “more active than NB74”. In addition, the “prokaryotic ribosome/protein synthesis inhibition and subsequent antibacterial activity compared with structurally related compound” value in data set [2] was “very similar to those of their structurally related Compounds NB74 and NB124”. Moreover, the “fold more specific to the eukaryotic ribosome than structurally related compound” value in data set [3] amounted to 1.85 fold. Besides, in data set [4], the “readthrough activity compared with gentamicin” value was “significantly better than that of the clinical drug gentamicin” and the “readthrough activity compared with structurally related compound” value is reported as “substantially better than that of the structurally related NB74”. Moreover, in the data set with B. subtilis ATCC-6633 (ATCC6633, Table 4, read-out: Antibacterial Activity MIC B. Subtilis ATCC6633), the MIC was 34 µM (≈ 16.5 µg/mL). The MIC in the data set on E. coli R477-100 was > 273 µM.
